Assays:
[1] = tested on: DU145; experiment: DU145 scattering inhibition (HGF dependent scattering); type: cell-based; details: Homo sapiens, DU-145; HGF dependent scattering, DU145 cells; read-out: DU145 SCATTERING INHIB IC50
Text: (§1) HGF has well known activity in terms of inducing scattering and migration (wound healing) (Wells et al., Cell Motil Cytoskeleton. 2005 November 62(3):180-94; Miura et al., Urology 2001 December 58(6):1064-9; Nishimura et al., Int J Urol. 1998 May 5(3):276-81; Wang et al., Mol Cancer Ther. 2003 November; 2(11):1085-92; and Christensen et al., Cancer Res. 2003 Nov. 1; 63(21):7345-55).

[2] = biological target: T1, recombinant human c-Met/HGF receptor (Homo sapiens, UniProt P08581); experiment: In vitro receptor tyrosine kinase assay (DELFIA), c-Met/HGF receptor; type: biochemical; details: read-out: CMET IC50
T1 construct: His tag (pBlueBacHis2A vector); made in house; host or cells: Hi-5 cells (Trichoplusia ni), baculovirus
Experimental: Cell pellets were frozen at −80° C. until purification was performed.
The coated plates were washed and stored at 4° C. […] After incubation, the kinase reactions were quenched with EDTA and the plates were washed.

[3] = tested on: A549; experiment: A549 wound healing inhibition (HGF dependent migration); type: cell-based; details: Homo sapiens, A549 cells, read-out: A549 WOUND HEALING INHIB IC50
Text: as §1

[4] = biological target: T2, VEGF receptor KDR (Homo sapiens, UniProt P35968); experiment: In vitro receptor tyrosine kinase assay (DELFIA), VEGF receptor KDR; type: biochemical; details: read-out: VEGFR IC50
T2 construct: made in house; host or cells: Sf9 cells (Spodoptera frugiperda), baculovirus
T2 sequence (P35968 806-1356): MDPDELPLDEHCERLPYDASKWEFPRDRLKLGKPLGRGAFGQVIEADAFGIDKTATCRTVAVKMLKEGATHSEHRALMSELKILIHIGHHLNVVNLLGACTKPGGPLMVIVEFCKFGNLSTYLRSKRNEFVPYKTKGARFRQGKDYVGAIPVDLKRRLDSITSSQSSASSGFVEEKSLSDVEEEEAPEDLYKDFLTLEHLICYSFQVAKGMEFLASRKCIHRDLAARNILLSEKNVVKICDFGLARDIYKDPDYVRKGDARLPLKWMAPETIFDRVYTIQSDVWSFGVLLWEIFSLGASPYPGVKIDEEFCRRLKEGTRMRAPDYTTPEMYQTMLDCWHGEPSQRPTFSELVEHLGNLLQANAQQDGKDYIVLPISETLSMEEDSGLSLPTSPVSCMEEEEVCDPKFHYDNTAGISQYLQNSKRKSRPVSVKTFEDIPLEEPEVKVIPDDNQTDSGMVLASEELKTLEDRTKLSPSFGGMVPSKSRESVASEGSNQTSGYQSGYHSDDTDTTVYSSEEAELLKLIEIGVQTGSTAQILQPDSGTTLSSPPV

T1 sequence (P08581 1078-1337): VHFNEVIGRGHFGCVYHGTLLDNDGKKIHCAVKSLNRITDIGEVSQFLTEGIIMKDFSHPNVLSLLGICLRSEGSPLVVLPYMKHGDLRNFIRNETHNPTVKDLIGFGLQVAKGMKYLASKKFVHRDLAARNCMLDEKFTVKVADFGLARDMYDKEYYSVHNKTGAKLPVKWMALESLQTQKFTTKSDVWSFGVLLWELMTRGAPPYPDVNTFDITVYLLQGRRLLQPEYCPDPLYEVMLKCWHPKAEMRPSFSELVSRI

IC50 [1]	IC50 [2]	IC50 [3]	IC50 [4]	SMILES
< 1000 nM	< 50 nM	< 1000 nM	< 50 nM	CC(=O)N1CC=C(c2cc3nccc(Oc4ccc(NC(=O)N5CCN(c6ccc(F)cc6)C5=O)cc4F)c3s2)CC1
> 10000 nM	250 to 500 nM	> 10000 nM	< 50 nM	CCn1cnc(-c2cc3nccc(Oc4ccc(NC(=O)C5(C(=O)N(C)c6ccc(F)cc6)CC5)cc4F)c3s2)c1
< 1000 nM	50 to 250 nM	1000 to 5000 nM	< 50 nM	CCn1cnc(-c2cc3nccc(Oc4ccc(NC(=O)CC(=O)Nc5ccccc5C(F)(F)F)cc4F)c3s2)c1
< 1000 nM	< 50 nM	< 1000 nM	< 50 nM	CCn1cnc(-c2cc3nccc(Oc4ccc(NC(=O)N5CCN(c6ccccc6)C5=O)cc4F)c3s2)c1
1000 to 5000 nM	50 to 250 nM	< 1000 nM	250 to 500 nM	Cn1cnc(-c2cc3nccc(Oc4ccc(NC(=O)C5CCN(c6ccccc6F)C5=O)cc4F)c3s2)c1 (stereo not drawn)
< 1000 nM	< 50 nM	< 1000 nM	< 50 nM	O=C(CC(=O)Nc1ccc(Oc2ccnc3cc(-c4cn(CCO)cn4)sc23)c(F)c1)Nc1ccccc1
1000 to 5000 nM	50 to 250 nM	1000 to 5000 nM	< 50 nM	CN1CCN(Cc2ccc(-c3cc4nccc(Oc5ccc(NC(=O)C6CCN(c7ccccc7)C6=O)cc5F)c4s3)nc2)CC1 (stereo not drawn)
> 10000 nM	250 to 500 nM	5000 to 10000 nM	< 50 nM	COc1ccccc1CCNC(=O)C(=O)Nc1ccc(Oc2ccnc3cc(-c4cn(C)cn4)sc23)c(F)c1
< 1000 nM	< 50 nM	< 1000 nM	< 50 nM	Cn1ccnc1-c1cc2nccc(Oc3ccc(NC(=O)N4CCN(c5ccccc5)C4=O)cc3F)c2s1
< 1000 nM	50 to 250 nM	< 1000 nM	< 50 nM	CN1CCN(CCN(C)Cc2cccc(-c3cc4nccc(Oc5ccc(NC(=O)CC(=O)N(C)c6ccccc6)cc5F)c4s3)c2)CC1
1000 to 5000 nM	50 to 250 nM	1000 to 5000 nM	< 50 nM	CNCCn1cnc(-c2cc3nccc(Oc4ccc(NC(=O)CC(=O)Nc5ccccc5OC)cc4F)c3s2)c1
> 10000 nM	50 to 250 nM	1000 to 5000 nM	> 500 nM	COc1ccccc1NC(=O)CC(=O)Nc1ccc(Oc2ccnc3cc(-c4cccc(OCCCNC(=N)N)c4)sc23)c(F)c1
< 1000 nM	< 50 nM	1000 to 5000 nM	< 50 nM	CN(C(=O)CC(=O)Nc1ccc(Oc2ccnc3cc(-c4cn(CCCN5CCCC5)cn4)sc23)c(F)c1)c1ccccc1
< 1000 nM	< 50 nM	< 1000 nM	< 50 nM	Cn1cnc(-c2cc3nccc(Nc4ccc(NC(=O)C5(C(=O)Nc6ccc(F)cc6)CC5)cc4F)c3s2)c1
< 1000 nM	< 50 nM	< 1000 nM	< 50 nM	CN(C)CCn1cnc(-c2cc3nccc(Oc4ccc(NC(=O)C5(C(=O)Nc6ccccc6F)CC5)cc4F)c3s2)c1
> 10000 nM	50 to 250 nM	1000 to 5000 nM	50 to 250 nM	CCn1cnc(-c2cc3nccc(Oc4ccc(NC(=O)C(=O)NCCc5ccccc5F)cc4F)c3s2)c1
1000 to 5000 nM	> 500 nM	< 1000 nM	50 to 250 nM	CN(C(=O)C1(C(=O)Nc2ccc(Oc3ccnc4cc(-c5cn(C)cn5)sc34)c(F)c2)CC1)c1ccccc1
> 10000 nM	> 500 nM	> 10000 nM	> 500 nM	Cn1ccnc1-c1cc2nccc(Oc3ccc(NC(=O)CC(=O)OC4CCNCC4)cc3F)c2s1
< 1000 nM	50 to 250 nM	< 1000 nM	< 50 nM	Cn1ccnc1-c1cc2nccc(Oc3ccc(NC(=S)N4CCN(c5ccc(F)cc5)C4=O)cc3F)c2s1
1000 to 5000 nM	< 50 nM	1000 to 5000 nM	< 50 nM	CN1CCN(C(=O)CC(=O)Nc2ccc(Oc3ccnc4cc(-c5cn(C)cn5)sc34)c(F)c2)c2ccccc21
1000 to 5000 nM	50 to 250 nM	< 1000 nM	< 50 nM	CCn1cnc(-c2cc3nccc(Oc4ccc(NC(=O)CC(=O)Nc5ccc(OC)cc5)cc4F)c3s2)c1
< 1000 nM	< 50 nM	< 1000 nM	< 50 nM	CN(C)CCCn1cnc(-c2cc3nccc(Oc4ccc(NC(=O)CC(=O)N(C)c5ccccc5)cc4F)c3s2)c1
> 10000 nM	250 to 500 nM	> 10000 nM	> 500 nM	CC(C)N(C(=O)CC(=O)Nc1ccc(Oc2ccnc3cc(C4=CCN(C)CC4)sc23)c(F)c1)c1ccccc1

IC50 [1]	IC50 [2]	IC50 [3]	IC50 [4]	SMILES
< 1000 nM	< 50 nM	1000 to 5000 nM	< 50 nM	CN1CCN(CCN(C)Cc2ccc(-c3cc4nccc(Oc5ccc(NC(=O)C6CCN(c7ccccc7)C6=O)cc5F)c4s3)cc2)CC1 (stereo not drawn)
< 1000 nM	50 to 250 nM	1000 to 5000 nM	< 50 nM	CCCn1cnc(-c2cc3nccc(Oc4ccc(NC(=O)CC(=O)Nc5cccc(F)c5)cc4F)c3s2)c1
1000 to 5000 nM	< 50 nM	1000 to 5000 nM	< 50 nM	CCn1cnc(-c2cc3nccc(Oc4ccc(NC(=O)CC(=O)Nc5ccccc5O)cc4F)c3s2)c1
< 1000 nM	< 50 nM	1000 to 5000 nM	< 50 nM	CN1CCN(CCN(C)Cc2ccc(-c3cc4nccc(Oc5ccc(NC(=O)CC(=O)N(C)c6ccccc6)cc5F)c4s3)cc2)CC1
> 10000 nM	50 to 250 nM	5000 to 10000 nM	< 50 nM	O=C(Nc1ccc(Oc2ccnc3cc(-c4cn(CCCN5CCCC5)cn4)sc23)c(F)c1)N1CCN(c2ccccc2F)C1=O
< 1000 nM	< 50 nM	1000 to 5000 nM	50 to 250 nM	Cn1cnc(-c2cc3nccc(Oc4ccc(NC(=O)N5CCN(N6CCCCC6)C5=O)cc4F)c3s2)c1
< 1000 nM	50 to 250 nM	1000 to 5000 nM	< 50 nM	CN1CCN(Cc2ccc(-c3cc4nccc(Oc5ccc(NC(=O)CC(=O)N(C)c6ccccc6)cc5F)c4s3)cc2)CC1
< 1000 nM	< 50 nM	< 1000 nM	< 50 nM	O=C(Nc1ccc(Oc2ccnc3cc(-c4cn(CCCN5CCCC5)cn4)sc23)c(F)c1)N1CCN(c2ccc(F)cc2)C1=O
> 10000 nM	250 to 500 nM	1000 to 5000 nM	> 500 nM	CC(C)n1cnc(-c2cc3nccc(Oc4ccc(NC(=O)C5CC(=O)N(c6ccccc6)C5)cc4F)c3s2)c1 (stereo not drawn)
> 10000 nM	< 50 nM	> 10000 nM	50 to 250 nM	COc1ccccc1NC(=O)CC(=O)Nc1ccc(Oc2ccnc3cc(-c4ccc(OCCCN(C)C)c(OCCCN(C)C)c4)sc23)c(F)c1
< 1000 nM	< 50 nM	< 1000 nM	< 50 nM	COc1ccccc1NC(=O)CC(=O)Nc1ccc(Oc2ccnc3cc(-c4cn(C(C)C)cn4)sc23)c(F)c1
< 1000 nM	50 to 250 nM	< 1000 nM	< 50 nM	COc1ccccc1NC(=O)CC(=O)Nc1ccc(Oc2ccnc3cc(-c4cn(CCN(C)C)cn4)sc23)c(F)c1
< 1000 nM	< 50 nM	1000 to 5000 nM	< 50 nM	CCn1cnc(-c2cc3nccc(Oc4ccc(NC(=O)CC(=O)Nc5ccccc5OC)cc4F)c3s2)c1 [drawing 292]
< 1000 nM	< 50 nM	< 1000 nM	< 50 nM	CN(C)CCn1cnc(-c2cc3nccc(Oc4ccc(NC(=O)CC(=O)N(C)c5ccccc5)cc4F)c3s2)c1
1000 to 5000 nM	50 to 250 nM	< 1000 nM	50 to 250 nM	CN(C)[C@@H]1CCN(C(=O)c2cc3nccc(Oc4ccc(NC(=O)CC(=O)Nc5ccccc5)cc4F)c3s2)C1 [drawing 294]
< 1000 nM	50 to 250 nM	< 1000 nM	< 50 nM	COc1ccccc1NC(=O)CC(=O)Nc1ccc(Oc2ccnc3cc(-c4cn(C)cn4)sc23)c(F)c1
1000 to 5000 nM	250 to 500 nM	1000 to 5000 nM	> 500 nM	CN(c1ccc(NC(=O)C2(C(=O)Nc3ccccc3)CC2)cc1F)c1ccnc2ccsc12
1000 to 5000 nM	50 to 250 nM	1000 to 5000 nM	50 to 250 nM	CCn1cnc(-c2cc3nccc(Oc4ccc(NC(=O)CC(Nc5ccccc5)C(F)(F)F)cc4F)c3s2)c1 (stereo not drawn)
1000 to 5000 nM	< 50 nM	1000 to 5000 nM	50 to 250 nM	CN1CC=C(c2cc3nccc(Oc4ccc(NC(=O)CC(=O)N(C)c5ccccc5)cc4F)c3s2)CC1
1000 to 5000 nM	< 50 nM	1000 to 5000 nM	< 50 nM	CC(C)n1cnc(-c2cc3nccc(Oc4ccc(NC(=O)CC(=O)Nc5nccs5)cc4F)c3s2)c1
< 1000 nM	50 to 250 nM	1000 to 5000 nM	50 to 250 nM	CCn1cncc1-c1cc2nccc(Oc3ccc(NC(=O)CC(=O)Nc4ccccc4OC)cc3F)c2s1
< 1000 nM	< 50 nM	< 1000 nM	< 50 nM	COCCNCc1ccc(-c2cc3nccc(Oc4ccc(NC(=O)N5CCN(c6ccc(F)cc6)C5=O)cc4F)c3s2)cc1

Reference: patent publication US8329726B2, “Inhibitors of VEGF receptor and HGF receptor signaling” (MethylGene Inc., priority 2005, dated 2012)
